Entries after “also recorded” stand apart in the source; their conditions may differ. Read-outs that look alike come from different tables or passages of the source.
Key:
[1] = test system: C. elegans of the Bristol N2 strain; experiment: Automated feeding assay (bead ingestion, pharyngeal pumping); format: in vivo, Caenorhabditis elegans; conditions: for Effect of 0.325 mM compound on serotonin-stimulated (0.325 mM) bead ingestion: 0.325 mM compound plus 0.325 mM serotonin; for Effect of 0.325 mM compound on bead ingestion: no added serotonin; for IC50 / IC50 (inhibitory concentration 50%) for bead ingestion: estimated from log dose response curves (FIG. 2); for IC50: read-out: IC50 (inhibitory concentration 50%) for bead ingestion
From the text: An automated screening assay has been developed and described in the present Applicants' co-pending International patent application No. PCT/AU00/01476 (WO 01/40500). Using the screening assay, twenty novel tropanyl ester compounds as well as tropanyl dichlorobenzoate were screened for nematicidal activity.
The assay used was essentially that described in WO 01/40500 with minor modifications. The protocol was as follows:
(1.) Plate Culture. C. elegans of the Bristol N2 strain (Brenner, 1974) were cultured at room temperature on HMS174 E. coli bacteria (Campbell et al., 1978) spread on a 150 mm diameter petri dish containing enhanced NGM 1.7% (w/v) (Avery and Horvitz, 1990) agar until a good population of adult nematodes was present, but food reserves had not been exhausted.
(2.) The nematodes were collected by washing each plate with 10 mL and then 5 mL of M9 buffer plate and filtering over a 20 μm nylon mesh (Nytal—Catalogue no. BCNY-HDO02-20) to retain adult nematodes. The nematodes from 7-8 of these 150 mm plates were collected together and placed on a 63 μm mesh filter (Nytal—product code PA-25-43) and washed with 200-250 mL of M9 buffer or MilliQ water. This procedure allows the passage of nematodes whilst retaining larger debris. Finally the nematodes were collected over a 20 μm mesh.
(3.) Adult nematodes were collected from the mesh using a pasteur pipette and allowed to settle in an eppendorf tube at 1×g for 10 minutes. This packed volume was used to calculate quantities of nematodes for experiments and assays, although nematodes were resuspended in 2-10 volumes of M9 buffer for transfer. Quantitative transfers of nematodes were performed using a Gilson Pipetman P200 or equivalent and a yellow tip with 5 mm cut off the sharp end.
(4.) Assays were performed in 24 well tissue-lture clusters (Nunc multidish). The final assay volume was 230 μL comprising the following sequential additions: • (i) M9 buffer—sufficient to bring the final volume to 230 μL • ([…]) Any other pharmacological agents—≦1.5 μL of drug in DMSO (or water) • (iv) Nematodes—150 μL of a 10% (v/v) stock in M9 • (v) Fluorescent beads—23 μL of a 1% w/v solution in M9.
Where serotonin or other pharmacological agents were omitted, the volume was adjusted with M9 buffer. Control experiments included 1.5 μL of DMSO except in the case of ondansetron, which was added from an aqueous stock.
The fluorescent beads were 1.30 μm uniformly dyed microsphere beads with a hydrophilic surface-coating. The fluorescence excitation maximum was 420 nm and the emission maximum was 485 nm (catalogue code FC04F, carboxylate-modified polystyrene/polyvinyl copolymer, manufactured and supplied by Bangs Laboratories, Inc. 9025 Technology Drive, Fishers, INDIANA 46038-2886, USA).
(5.) The nematodes were incubated for 60 minutes after the addition of the fluorescent beads at room temperature (≈21° C.) without shaking. The assay was terminated by the addition of 20 μL of 100 mM sodium azide.
(6.) Two aliquots of 100 μl each were transferred from each well of the 24 well cluster to a pair of wells in a pre-blocked mesh-bottomed plate (see below for details of the mesh-bottomed plate) and the buffer/bead suspension was immediately aspirated away through the filter mesh using a Millipore Multiscreen vacuum manifold.
(7.) A total of eight washing steps were performed. Each of the first five washes used 200 μL of 1%(w/v) sodium lauryl sulphate (SDS—Sigma) in M9 buffer. The third and fifth washes involved pipetting the solution up and down in the wells of the plate ten times each wash. The SDS washes were followed by three washes with 200 μL of M9 buffer only. At the end of each washing step, solutions were aspirated away through the mesh using a Millipore Multiscreen vacuum manifold. […]

nematode C. elegans = conditions: cited from earlier work
insects = conditions: in vivo; cited from earlier work
[2] = Caenorhabditis elegans, in the presence of 1 mM serotonin
[3] = as summarised in the background, no concentration given
[4] = in the presence of 1 mM serotonin

Compound | Effect of 0.325 mM compound on serotonin-stimulated (0.325 mM) bead ingestion [1] | Effect of 0.325 mM compound on bead ingestion [1] | further results
CN1[C@@H]2CC[C@H]1CC(OC(=O)c1ccccc1)C2 (stereo partly shown) [DCP-45221 (1), benzoic acid tropan-3-yl ester] | potentiates marginally | stimulates marginally | 
COC(=O)c1cccc(C(=O)OC2C[C@H]3CC[C@@H](C2)N3C)c1 (stereo partly shown) [DCP-45237 (17), isophthalic acid methyl ester tropan-3-yl ester] | no effect | no effect | 
CN1[C@@H]2CC[C@H]1CC(OC(=O)c1ccccc1Cl)C2 (stereo partly shown) [DCP-45222 (2), 2-chloro-benzoic acid tropan-3-yl ester] | no effect | no effect | 
CN1[C@@H]2CC[C@H]1CC(OC(=O)c1c(F)cccc1F)C2 (stereo partly shown) [DCP-45227 (7), 2,6-difluoro-benzoic acid tropan-3-yl ester] | reverses marginally | no effect | 
Cc1nccn1CC1CCc2c(c3ccccc3n2C)C1=O (stereo not shown) [ondansetron] |  |  | IC50 [1, 2]: 562 µM; Effect on pharyngeal pumping (nematode C. elegans; [3]): profoundly inhibited; Effect on serotonin-stimulated rate of pharyngeal pumping (nematode C. elegans; drug 0.325 mM, serotonin 0.325 mM): antagonised the stimulatory effect; Detrimental effects in insects (insects): significant detrimental effects, including some mortality
CN1[C@@H]2CC[C@H]1CC(OC(=O)c1ccc(Cl)c(Cl)c1)C2 (stereo partly shown) [DCP-45228 (8), 3,4-dichloro-benzoic acid tropan-3-yl ester] | strongly reversed; also recorded: reverses strongly | reduced; also recorded: inhibits | Implied IC50 without serotonin (extrapolated from IC50 ratio, not measured) ([1]; Caenorhabditis elegans, in the absence of added serotonin, implied from the tropanyl dichlorobenzoate IC50 ratio with and without serotonin, read-out: IC50 and therefore chronic EC50 implied from differential factor): ~6 µM
COC(=O)c1ccc(C(=O)OC2C[C@H]3CC[C@@H](C2)N3C)cc1 (stereo partly shown) [DCP-45236 (16), terephthalic acid methyl ester tropan-3-yl ester] | no effect | no effect | 
CN1[C@@H]2CC[C@H]1CC(OC(=O)c1cccc(CCl)c1)C2 (stereo partly shown) [DCP-45223 (3), 3-chloromethyl-benzoic acid tropan-3-yl ester] | no effect | no effect | 
COC(=O)c1cncc(C(=O)OC2C[C@H]3CC[C@@H](C2)N3C)c1 (stereo partly shown) [DCP-45239 (19), pyridine-3,5-dicarboxylic acid methyl ester tropan-3-yl ester] | potentiates marginally | no effect | 
CC(Oc1ccccc1)C(=O)OC1C[C@H]2CC[C@@H](C1)N2C (stereo partly shown) [DCP-45230 (10), 2-phenoxy-propionic acid tropan-3-yl ester] | reverses marginally | inhibits | 
COC(=O)[C@H]1CC[C@H](C(=O)OC2C[C@H]3CC[C@@H](C2)N3C)CC1 (relative stereo) [DCP-45235 (15), trans-cyclohexane-1,4-dicarboxylic acid methyl ester tropan-3-yl ester] | no effect/reverses | no effect | 
CN1[C@@H]2CC[C@H]1CC(OC(=O)C1CC1)C2 (stereo partly shown) [DCP-45233 (13), cyclopropanecarboxylic acid tropan-3-yl ester] | potentiates marginally | no effect | 
CN1[C@@H]2CC[C@H]1CC(OC(=O)c1ccc(Cl)cc1)C2 (stereo partly shown) [DCP-45225 (5), 4-chloro-benzoic acid tropan-3-yl ester] | no effect | no effect | 
Cc1[nH]c2ccc(O)cc2c1CCN.Cl [2-methyl-5-hydroxytryptamine, 2-methyl-5-hydroxytryptamine hydrochloride] |  |  | Effect on locomotion (nematode C. elegans; 3 mM): did not inhibit locomotion; Effect on pharyngeal pumping (nematode C. elegans; 3 mM): strongly stimulated; Effect on pharyngeal pumping (nematode C. elegans; [3]): strongly and specifically stimulated
CN1[C@@H]2CC[C@H]1CC(OC(=O)c1ccccc1F)C2 (stereo partly shown) [DCP-45229 (9), 2-fluoro-benzoic acid tropan-3-yl ester] | strongly reversed; also recorded: reverses marginally | no effect | Anomalous activity in dose response for bead ingestion ([1]; in the presence of 1 mM serotonin, at lower doses): very strong stimulatory effects; IC50 (inhibitory concentration 50%) for bead ingestion [1, 4]: impossible to estimate
CN1[C@@H]2CC[C@H]1CC(OC(=O)C1CCC1)C2 (stereo partly shown) [DCP-45234 (14), cyclobutanecarboxylic acid tropan-3-yl ester] | no effect | no effect | 
COC(=O)C12C3C4C1C1C2C3C41C(=O)OC1C[C@H]2CC[C@@H](C1)N2C (stereo partly shown) [DCP-45232 (12), cubane-1,4-dicarboxylic acid methyl ester tropan-3-yl ester] |  | no effect | Effect of 0.325 mM compound on serotonin-stimulated (0.325 mM) bead ingestion ([1]; observed with an unpurified mixture): reverses marginally^1
CN1[C@@H]2CC[C@H]1CC(OC(=O)c1c[nH]c3ccccc13)C2 (stereo partly shown) [DCP-45240 (20), 1H-indole-3-carboxylic acid tropan-3-yl ester] | reverses markedly | no effect | IC50 [1, 2]: 316 µM
CN1[C@@H]2CC[C@H]1CC(OC(=O)c1cccc(Cl)c1)C2 (stereo partly shown) [DCP-45224 (4), 3-chloro-benzoic acid tropan-3-yl ester] | strongly reversed; also recorded: reverses strongly | no effect | IC50 (inhibitory concentration 50%) for bead ingestion [1, 4]: impossible to estimate
COC(=O)c1ccccc1C(=O)OC1C[C@H]2CC[C@@H](C1)N2C (stereo partly shown) [DCP-45238 (18), phthalic acid methyl ester tropan-3-yl ester] | strongly reversed; also recorded: reverses markedly | no effect | 
CN1[C@@H]2CC[C@H]1CC(OC(=O)c1cc(F)ccc1F)C2 (stereo partly shown) [DCP-45226 (6), 2,5-difluoro-benzoic acid tropan-3-yl ester] | reverses marginally | no effect | 
CN1[C@@H]2CC[C@H]1CC(OC(=O)Cc1ccccc1)C2 (stereo partly shown) [DCP-45231 (11), phenyl-acetic acid tropan-3-yl ester] | reverses marginally | inhibits | 

From patent US20050054680A1, “Agonists and antagonists of 5h3-like receptors of invertebrates as pesticides” (priority 2001, published 2005)
